Measurements as given in the supplement of paper PMC8671470.

Each compound was assayed on myeloid leukemia patient primary cells Pat.12 (assay: cell viability (% survival relative to DMSO control); higher = less cytotoxic). Details: 1 nM; 72 h.
In short: (§1)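 Thawed mononuclear cells from AML or CML patients were purified on Ficoll and cultured for 72 h in RPMI 1640 with 10% FBS, at 10,000 cells/well, on 384-well plates carrying 70 pre-printed compounds at 1–10,000 nM in five tenfold steps, in duplicate. Viability came from CellTiter-Glo, normalised against DMSO and against 10 μM proteasome inhibitor. Any area under the curve given was derived from log-logistic curve fits in the drc and PharmacoGx R packages, and these fits had four parameters.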

SMILES	cell viability [%]
NS(=O)(=O)c1ccc(S(=O)(=O)Nc2cccc3c(Cl)c[nH]c23)cc1 [Indisulam]	89.5
Cc1nnc(-c2ccc(N3CCC(Oc4ccccc4C(F)(F)F)CC3)nn2)s1 [MF-438]	99.4
CCCCCCCCCCCCC/C=C/[C@@H](O)[C@H](CO)N(C)C [N,N-Dimethylsphingosine]	100
Nc1nc(O)c2c(CCc3ccc(C(=O)N[C@@H](CCC(=O)O)C(=O)O)cc3)c[nH]c2n1 [Pemetrexed]	> 100
C=C1NC(=O)c2cc(CN(C)c3ccc(C(=O)N[C@@H](CCC(=O)O)C(=O)O)s3)ccc2N1 [Raltitrexed]	86.9

Same assay, conditions: 10 nM; 72 h

SMILES	cell viability [%]
NS(=O)(=O)c1ccc(S(=O)(=O)Nc2cccc3c(Cl)c[nH]c23)cc1 [Indisulam]	95.5
Cc1nnc(-c2ccc(N3CCC(Oc4ccccc4C(F)(F)F)CC3)nn2)s1 [MF-438]	97.1
CCCCCCCCCCCCC/C=C/[C@@H](O)[C@H](CO)N(C)C [N,N-Dimethylsphingosine]	84.6
Nc1nc(O)c2c(CCc3ccc(C(=O)N[C@@H](CCC(=O)O)C(=O)O)cc3)c[nH]c2n1 [Pemetrexed]	94.2
C=C1NC(=O)c2cc(CN(C)c3ccc(C(=O)N[C@@H](CCC(=O)O)C(=O)O)s3)ccc2N1 [Raltitrexed]	96.9

Same assay, conditions: 100 nM; 72 h

SMILES	cell viability [%]
NS(=O)(=O)c1ccc(S(=O)(=O)Nc2cccc3c(Cl)c[nH]c23)cc1 [Indisulam]	89.6
Cc1nnc(-c2ccc(N3CCC(Oc4ccccc4C(F)(F)F)CC3)nn2)s1 [MF-438]	> 100
CCCCCCCCCCCCC/C=C/[C@@H](O)[C@H](CO)N(C)C [N,N-Dimethylsphingosine]	94.2
Nc1nc(O)c2c(CCc3ccc(C(=O)N[C@@H](CCC(=O)O)C(=O)O)cc3)c[nH]c2n1 [Pemetrexed]	95.4
C=C1NC(=O)c2cc(CN(C)c3ccc(C(=O)N[C@@H](CCC(=O)O)C(=O)O)s3)ccc2N1 [Raltitrexed]	> 100

Same assay, conditions: 1000 nM; 72 h

SMILES	cell viability [%]
NS(=O)(=O)c1ccc(S(=O)(=O)Nc2cccc3c(Cl)c[nH]c23)cc1 [Indisulam]	96.9
Cc1nnc(-c2ccc(N3CCC(Oc4ccccc4C(F)(F)F)CC3)nn2)s1 [MF-438]	87.5
CCCCCCCCCCCCC/C=C/[C@@H](O)[C@H](CO)N(C)C [N,N-Dimethylsphingosine]	84.6
Nc1nc(O)c2c(CCc3ccc(C(=O)N[C@@H](CCC(=O)O)C(=O)O)cc3)c[nH]c2n1 [Pemetrexed]	99.1
C=C1NC(=O)c2cc(CN(C)c3ccc(C(=O)N[C@@H](CCC(=O)O)C(=O)O)s3)ccc2N1 [Raltitrexed]	95.9

Same assay, conditions: 10000 nM; 72 h

SMILES	cell viability [%]
NS(=O)(=O)c1ccc(S(=O)(=O)Nc2cccc3c(Cl)c[nH]c23)cc1 [Indisulam]	85.2
Cc1nnc(-c2ccc(N3CCC(Oc4ccccc4C(F)(F)F)CC3)nn2)s1 [MF-438]	90.5
CCCCCCCCCCCCC/C=C/[C@@H](O)[C@H](CO)N(C)C [N,N-Dimethylsphingosine]	42.2
Nc1nc(O)c2c(CCc3ccc(C(=O)N[C@@H](CCC(=O)O)C(=O)O)cc3)c[nH]c2n1 [Pemetrexed]	97.1
C=C1NC(=O)c2cc(CN(C)c3ccc(C(=O)N[C@@H](CCC(=O)O)C(=O)O)s3)ccc2N1 [Raltitrexed]	98.6

The compounds below were run on myeloid leukemia patient primary cells Pat.2 in the same assay as above. Details: 1 nM; 72 h.
In short: as §1

SMILES	cell viability [%]
NS(=O)(=O)c1ccc(S(=O)(=O)Nc2cccc3c(Cl)c[nH]c23)cc1 [Indisulam]	> 100
Cc1nnc(-c2ccc(N3CCC(Oc4ccccc4C(F)(F)F)CC3)nn2)s1 [MF-438]	> 100
CCCCCCCCCCCCC/C=C/[C@@H](O)[C@H](CO)N(C)C [N,N-Dimethylsphingosine]	91.4
Nc1nc(O)c2c(CCc3ccc(C(=O)N[C@@H](CCC(=O)O)C(=O)O)cc3)c[nH]c2n1 [Pemetrexed]	81.9
C=C1NC(=O)c2cc(CN(C)c3ccc(C(=O)N[C@@H](CCC(=O)O)C(=O)O)s3)ccc2N1 [Raltitrexed]	95.5

Same assay, conditions: 10 nM; 72 h

SMILES	cell viability [%]
NS(=O)(=O)c1ccc(S(=O)(=O)Nc2cccc3c(Cl)c[nH]c23)cc1 [Indisulam]	88.2
Cc1nnc(-c2ccc(N3CCC(Oc4ccccc4C(F)(F)F)CC3)nn2)s1 [MF-438]	99.8
CCCCCCCCCCCCC/C=C/[C@@H](O)[C@H](CO)N(C)C [N,N-Dimethylsphingosine]	96.1
Nc1nc(O)c2c(CCc3ccc(C(=O)N[C@@H](CCC(=O)O)C(=O)O)cc3)c[nH]c2n1 [Pemetrexed]	96.3
C=C1NC(=O)c2cc(CN(C)c3ccc(C(=O)N[C@@H](CCC(=O)O)C(=O)O)s3)ccc2N1 [Raltitrexed]	95

Same assay, conditions: 100 nM; 72 h

SMILES	cell viability [%]
NS(=O)(=O)c1ccc(S(=O)(=O)Nc2cccc3c(Cl)c[nH]c23)cc1 [Indisulam]	95.8
Cc1nnc(-c2ccc(N3CCC(Oc4ccccc4C(F)(F)F)CC3)nn2)s1 [MF-438]	95.4
CCCCCCCCCCCCC/C=C/[C@@H](O)[C@H](CO)N(C)C [N,N-Dimethylsphingosine]	88.2
Nc1nc(O)c2c(CCc3ccc(C(=O)N[C@@H](CCC(=O)O)C(=O)O)cc3)c[nH]c2n1 [Pemetrexed]	97.9
C=C1NC(=O)c2cc(CN(C)c3ccc(C(=O)N[C@@H](CCC(=O)O)C(=O)O)s3)ccc2N1 [Raltitrexed]	> 100

Same assay, conditions: 1000 nM; 72 h

SMILES	cell viability [%]
NS(=O)(=O)c1ccc(S(=O)(=O)Nc2cccc3c(Cl)c[nH]c23)cc1 [Indisulam]	96.9
Cc1nnc(-c2ccc(N3CCC(Oc4ccccc4C(F)(F)F)CC3)nn2)s1 [MF-438]	87.6
CCCCCCCCCCCCC/C=C/[C@@H](O)[C@H](CO)N(C)C [N,N-Dimethylsphingosine]	92.4
Nc1nc(O)c2c(CCc3ccc(C(=O)N[C@@H](CCC(=O)O)C(=O)O)cc3)c[nH]c2n1 [Pemetrexed]	94.3
C=C1NC(=O)c2cc(CN(C)c3ccc(C(=O)N[C@@H](CCC(=O)O)C(=O)O)s3)ccc2N1 [Raltitrexed]	99.7

Same assay, conditions: 10000 nM; 72 h

SMILES	cell viability [%]
NS(=O)(=O)c1ccc(S(=O)(=O)Nc2cccc3c(Cl)c[nH]c23)cc1 [Indisulam]	67.1
Cc1nnc(-c2ccc(N3CCC(Oc4ccccc4C(F)(F)F)CC3)nn2)s1 [MF-438]	89.7
CCCCCCCCCCCCC/C=C/[C@@H](O)[C@H](CO)N(C)C [N,N-Dimethylsphingosine]	3.22
Nc1nc(O)c2c(CCc3ccc(C(=O)N[C@@H](CCC(=O)O)C(=O)O)cc3)c[nH]c2n1 [Pemetrexed]	87.3
C=C1NC(=O)c2cc(CN(C)c3ccc(C(=O)N[C@@H](CCC(=O)O)C(=O)O)s3)ccc2N1 [Raltitrexed]	98.5

The compounds below were run on myeloid leukemia patient primary cells Pat.8 in the same assay as above. Details: 1 nM; 72 h.
In short: as §1

SMILES	cell viability [%]
NS(=O)(=O)c1ccc(S(=O)(=O)Nc2cccc3c(Cl)c[nH]c23)cc1 [Indisulam]	89.9
Cc1nnc(-c2ccc(N3CCC(Oc4ccccc4C(F)(F)F)CC3)nn2)s1 [MF-438]	86.9
CCCCCCCCCCCCC/C=C/[C@@H](O)[C@H](CO)N(C)C [N,N-Dimethylsphingosine]	71.9
Nc1nc(O)c2c(CCc3ccc(C(=O)N[C@@H](CCC(=O)O)C(=O)O)cc3)c[nH]c2n1 [Pemetrexed]	91.8
C=C1NC(=O)c2cc(CN(C)c3ccc(C(=O)N[C@@H](CCC(=O)O)C(=O)O)s3)ccc2N1 [Raltitrexed]	90.8

Same assay, conditions: 10 nM; 72 h

SMILES	cell viability [%]
NS(=O)(=O)c1ccc(S(=O)(=O)Nc2cccc3c(Cl)c[nH]c23)cc1 [Indisulam]	91.6
Cc1nnc(-c2ccc(N3CCC(Oc4ccccc4C(F)(F)F)CC3)nn2)s1 [MF-438]	94.5
CCCCCCCCCCCCC/C=C/[C@@H](O)[C@H](CO)N(C)C [N,N-Dimethylsphingosine]	86.8
Nc1nc(O)c2c(CCc3ccc(C(=O)N[C@@H](CCC(=O)O)C(=O)O)cc3)c[nH]c2n1 [Pemetrexed]	88.4
